The text below walks through data of US9777005B2 (Takeda Pharmaceutical Company Limited, priority 2012, dated 2017).

In the assay the target is T1, human M1 receptor (hCHRM1) (Homo sapiens, UniProt P11229).
T1 construct: expressed in transfected cells; host or cells: CHO-K1
T1 sequence (P11229 1-460): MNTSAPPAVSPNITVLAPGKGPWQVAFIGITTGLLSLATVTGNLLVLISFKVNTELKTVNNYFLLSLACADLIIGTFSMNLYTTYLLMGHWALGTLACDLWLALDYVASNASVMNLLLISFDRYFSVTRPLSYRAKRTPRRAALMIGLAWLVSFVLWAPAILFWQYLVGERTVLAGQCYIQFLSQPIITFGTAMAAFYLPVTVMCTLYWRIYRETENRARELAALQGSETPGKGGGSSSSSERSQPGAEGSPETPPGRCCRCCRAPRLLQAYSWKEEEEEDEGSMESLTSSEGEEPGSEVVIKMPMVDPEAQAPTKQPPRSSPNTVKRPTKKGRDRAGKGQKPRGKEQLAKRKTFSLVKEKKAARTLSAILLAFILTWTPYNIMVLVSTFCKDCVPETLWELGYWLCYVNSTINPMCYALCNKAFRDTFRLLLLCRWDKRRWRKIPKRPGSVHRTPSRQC
The assay is described as follows: Measurement of M1 receptor positive allosteric modulator (M1PAM) activity, calcium fluorescence (FLIPRtetra) in CHO-K1 cells in the presence of acetylcholine at EC20. The note with it: in the presence of acetylcholine at EC20 (final 0.6 nM), CHO-K1 cells expressing hCHRM1; for EC50: inflection point of M1PAM activity, read-out: IP value; for activity (%) at 10 μM: test compound 10 μM. It is filed as cell-based. As for the experimental part: Measurement of M1 Receptor Positive Allosteric Modulator (M1PAM) Activity
The activity of a test compound in the presence of acetylcholine at EC20 concentration (final concentration 0.6 nM), which affords an action corresponding to 20% of the maximum activity, was measured as PAM activity. The method is as follows. CHO-K1 cells forcibly expressing a human M1 receptor (hCHRM1) were plated on a 384-well black clear bottom plate (BD Falcon) at 5,000 cells/well, and cultured in an incubator at 37° C., 5% CO2 for 1 day. The medium in the cell plate was removed, and assay buffer A (Recording medium (DOJINDO LABORATORIES), 0.1% BSA (Wako Pure Chemical Industries, Ltd.), 2.5 μg/mL Fluo-4 AM (DOJINDO LABORATORIES), 0.08% Pluronic F127 (DOJINDO LABORATORIES), 1.25 mM probenecid (DOJINDO LABORATORIES)) containing a calcium indicator was added at 30 μL/well. The cells were left standing in the incubator at 37° C., 5% CO2 for 30 min, and further left standing at room temperature for 30 min. A test compound prepared by diluting with assay buffer B (HBSS (Invitrogen), 20 mM HEPES (Invitrogen), 0.1% BSA) containing 2.4 nM acetylcholine was added at 10 μL/well, and the fluorescence was measured by FLIPRtetra (Molecular Devices) for 1 min every 1 second. With the definition that the amount of change in the fluorescence on addition of acetylcholine (final concentration 1 μM) is 100% and that on addition of DMSO instead of a test compound is 0%, the activity (%) of the test compound and the inflection point in the concentration-dependent curve of the test compound were calculated as IP values.

In the case of `O=C1c2c(cccc2O[C@H]2CCCC[C@@H]2O)CN1Cc1cccc(Br)c1` (relative stereo) [Example 48, 2-(3-bromobenzyl)-7-((trans-2-hydroxycyclohexyl)oxy)isoindolin-1-one], the EC50 came out at 360 nM and the “activity (%) at 10 μM” value amounted to 100%.

Turning to `O=C1c2c(cccc2O[C@H]2CCC[C@@H]2O)CN1Cc1ccc(-n2cccn2)cc1` (relative stereo) [Example 54, 2-(4-(1H-pyrazol-1-yl)benzyl)-7-((trans-2-hydroxycyclopentyl)oxy)isoindolin-1-one], the EC50 came out at 160 nM and the “activity (%) at 10 μM” value is listed as 106%.

Turning to `Cc1cc(-c2ccc(CN3Cc4ccnc(O[C@H]5CCC[C@@H]5O)c4C3=O)cc2)ccn1` (relative stereo) [Example 76, 4-((trans-2-hydroxycyclopentyl)oxy)-2-(4-(2-methylpyridin-4-yl)benzyl)-1,2-dihydro-3H-pyrrolo[3,4-c]pyridin-3-one], the EC50 is 7.2 nM and the “activity (%) at 10 μM” value is on record as 108%.

In the case of `O=C1c2c(ccnc2O[C@H]2CCC[C@@H]2O)CN1Cc1ccc(-n2cccn2)cc1` (relative stereo) [Example 77, 4-((trans-2-hydroxycyclopentyl)oxy)-2-(4-(1H-pyrazol-1-yl)benzyl)-1,2-dihydro-3H-pyrrolo[3,4-c]pyridin-3-one], the EC50 was determined as 39 nM and the “activity (%) at 10 μM” value is on record as 103%.

As to `O=C1c2c(O[C@@H]3CCCC[C@H]3O)ccc(F)c2CN1Cc1ccc(-n2cccn2)cc1` (relative stereo) [Example 223, 4-fluoro-7-((trans-2-hydroxycyclohexyl)oxy)-2-(4-(1H-pyrazol-1-yl)benzyl)isoindolin-1-one], the EC50 was determined as 19 nM and the “activity (%) at 10 μM” value was determined as 103%.

In the case of `Cc1cc(-c2ccc(CN3Cc4cccc(O[C@H]5CCC[C@@H]5O)c4C3=O)cc2)ccn1` (relative stereo) [Example 224, 7-((trans-2-hydroxycyclopentyl)oxy)-2-(4-(2-methylpyridin-4-yl)benzyl)isoindolin-1-one], the EC50 worked out at 38 nM and the “activity (%) at 10 μM” value was found to be 107%.

On to `Cc1nn(C)cc1-c1ccc(CN2Cc3cccc(O[C@H]4CCC[C@@H]4O)c3C2=O)cc1` (relative stereo) [Example 226, 2-(4-(1,3-dimethyl-1H-pyrazol-4-yl)benzyl)-7-((trans-2-hydroxycyclopentyl)oxy)isoindolin-1-one], for which the EC50 was 30 nM and the “activity (%) at 10 μM” value was determined as 98%.

On to `Cc1nn(C)cc1-c1ccc(CN2Cc3ccnc(O[C@H]4CCC[C@@H]4O)c3C2=O)cc1` (relative stereo) [Example 227, 2-(4-(1,3-dimethyl-1H-pyrazol-4-yl)benzyl)-4-((trans-2-hydroxycyclopentyl)oxy)-1,2-dihydro-3H-pyrrolo[3,4-c]pyridin-3-one], for which the EC50 stood at 10 nM and the “activity (%) at 10 μM” value worked out at 99%.

Consider `O=C1c2c(ccc(F)c2O[C@H]2CCCC[C@@H]2O)CN1Cc1ccc(-n2cccn2)cc1` (relative stereo) [Example 228, 6-fluoro-7-((trans-2-hydroxycyclohexyl)oxy)-2-(4-(1H-pyrazol-1-yl)benzyl)isoindolin-1-one], for which the EC50 turned out to be 94 nM and the “activity (%) at 10 μM” value came out at 118%.

For the molecule `Cn1cc(-c2ccc(CN3Cc4cccc(O[C@H]5CCC[C@@H]5O)c4C3=O)cc2)nn1` (relative stereo) [Example 235, 7-((trans-2-hydroxycyclopentyl)oxy)-2-(4-(1-methyl-1H-1,2,3-triazol-4-yl)benzyl)isoindolin-1-one], the EC50 worked out at 14 nM and the “activity (%) at 10 μM” value worked out at 105%.

As for `Cn1ccc(-c2ccc(CN3Cc4ccnc(O[C@H]5CCC[C@@H]5O)c4C3=O)c(F)c2)n1` (relative stereo) [Example 236, 2-(2-fluoro-4-(1-methyl-1H-pyrazol-3-yl)benzyl)-4-((trans-2-hydroxycyclopentyl)oxy)-1,2-dihydro-3H-pyrrolo[3,4-c]pyridin-3-one], the EC50 came to 10 nM and the “activity (%) at 10 μM” value turned out to be 109%.

For the molecule `Cn1ccc(-c2ccc(CN3Cc4ccnc(O[C@H]5CCC[C@@H]5O)c4C3=O)cc2)n1` (relative stereo) [Example 237, 4-((trans-2-hydroxycyclopentyl)oxy)-2-(4-(1-methyl-1H-pyrazol-3-yl)benzyl)-1,2-dihydro-3H-pyrrolo[3,4-c]pyridin-3-one], the EC50 was 23 nM and the “activity (%) at 10 μM” value amounted to 108%.

`O=C1c2c(cc(F)cc2O[C@H]2CCCC[C@@H]2O)CN1Cc1ccc(-n2cccn2)cc1` (relative stereo) [Example 244, 5-fluoro-7-((trans-2-hydroxycyclohexyl)oxy)-2-(4-(1H-pyrazol-1-yl)benzyl)isoindolin-1-one]: the EC50 amounted to 16 nM and the “activity (%) at 10 μM” value is given as 104%.

Regarding `Cc1nn(C)cc1-c1ccc(CN2Cc3ccnc(O[C@H]4CCCC[C@@H]4O)c3C2=O)cc1` (relative stereo) [Example 267, 2-(4-(1,3-dimethyl-1H-pyrazol-4-yl)benzyl)-4-((trans-2-hydroxycyclohexyl)oxy)-1,2-dihydro-3H-pyrrolo[3,4-c]pyridin-3-one], the EC50 came out at 2.1 nM and the “activity (%) at 10 μM” value came out at 94%.

Regarding `Cn1ccc(-c2cc(F)c(CN3Cc4ccnc(O[C@H]5CCC[C@@H]5O)c4C3=O)c(F)c2)n1` (relative stereo) [Example 328, 2-(2,6-difluoro-4-(1-methyl-1H-pyrazol-3-yl)benzyl)-4-((trans-2-hydroxycyclopentyl)oxy)-1,2-dihydro-3H-pyrrolo[3,4-c]pyridin-3-one], the EC50 worked out at 6.4 nM and the “activity (%) at 10 μM” value is given as 97%.

With `O=C1c2c(cccc2O[C@H]2CCCC[C@@H]2O)CN1Cc1ccc(-c2ccnnc2)cc1` (relative stereo) [Example 352, 7-((trans-2-hydroxycyclohexyl)oxy)-2-(4-(pyridazin-4-yl)benzyl)isoindolin-1-one], the EC50 was found to be 4.4 nM and the “activity (%) at 10 μM” value came out at 94%.

Consider `Cc1cc(-c2ccc(CN3Cc4cccc(O[C@H]5CCCC[C@@H]5O)c4C3=O)cc2)cnn1` (relative stereo) [Example 355, 7-((trans-2-hydroxycyclohexyl)oxy)-2-(4-(6-methylpyridazin-4-yl)benzyl)isoindolin-1-one], for which the EC50 turned out to be 4.3 nM and the “activity (%) at 10 μM” value is on record as 95%.

As for `O=C1c2c(ccnc2O[C@H]2CCCC[C@@H]2O)CN1Cc1cccs1` (relative stereo) [Example 399, 4-((trans-2-hydroxycyclohexyl)oxy)-2-(2-thienylmethyl)-1,2-dihydro-3H-pyrrolo[3,4-c]pyridin-3-one], the EC50 was 97 nM and the “activity (%) at 10 μM” value is listed as 94%.

As to `O=C1c2c(ccnc2O[C@H]2CCCC[C@@H]2O)CN1Cc1ccc(Br)s1` (relative stereo) [Example 400, 2-((5-bromo-2-thienyl)methyl)-4-((trans-2-hydroxycyclohexyl)oxy)-1,2-dihydro-3H-pyrrolo[3,4-c]pyridin-3-one], the EC50 is 56 nM and the “activity (%) at 10 μM” value is 88%.

`O=C1c2c(ccnc2O[C@H]2CCCC[C@@H]2O)CN1Cc1ccc(Cl)s1` (relative stereo) [Example 401, 2-((5-chloro-2-thienyl)methyl)-4-((trans-2-hydroxycyclohexyl)oxy)-1,2-dihydro-3H-pyrrolo[3,4-c]pyridin-3-one]: the EC50 was determined as 48 nM and the “activity (%) at 10 μM” value was determined as 92%.

For `Cc1nn(C)cc1-c1ccc(CN2Cc3ccnc(O[C@H]4CCCC[C@@H]4O)c3C2=O)s1` (relative stereo) [Example 402, 2-((5-(1,3-dimethyl-1H-pyrazol-4-yl)-2-thienyl)methyl)-4-((trans-2-hydroxycyclohexyl)oxy)-1,2-dihydro-3H-pyrrolo[3,4-c]pyridin-3-one], the EC50 is 4.6 nM and the “activity (%) at 10 μM” value came out at 104%.
